Source: ChEMBL document CHEMBL4311943, “3-[(1S,2S,3R)-2,3-Difluoro-1-hydroxy-7-methylsulfonylindan-4-yl]oxy-5-fluorobenzonitrile (PT2977), a Hypoxia-Inducible Factor 2α (HIF-2α) Inhibitor for the Treatment of Clear Cell Renal Cell Carcinoma” (J Med Chem, 2019)
Calls of active or inactive are those of the source. The rule behind the calls is not given here.

Columns and labels:
[1] = molecular target: Neurotensin receptor type 1 (Homo sapiens) (UniProt P30989); assay: Activity at human NTR1 receptor at 10 uM
[2] = Toxicity in patient with advanced solid tumor assessed as anemia at 20 to 240 mg, po administered once daily; assay type: organism-based; details: human, in vivo
[3] = Protein binding in human plasma at 10 uM measured after 4 hrs by LC-MS/MS analysis; assay type: ADME, cell-free; details: read-out: PPB (converted)
UGT2B17 [4] = molecular target: T1, UGT2B17 (Homo sapiens, UniProt O75795); assay: Substrate activity at recombinant human UGT2B17 expressed in baculovirus infected insect cell membranes assessed as enzyme-mediated glucuronidation by measuring Km at 50 uM preincubated for 5 mins followed by UDPGA addition and measured after 60 mins by LC-MS/MS analysis; assay type: ADME
T1 sequence (O75795 whole entry): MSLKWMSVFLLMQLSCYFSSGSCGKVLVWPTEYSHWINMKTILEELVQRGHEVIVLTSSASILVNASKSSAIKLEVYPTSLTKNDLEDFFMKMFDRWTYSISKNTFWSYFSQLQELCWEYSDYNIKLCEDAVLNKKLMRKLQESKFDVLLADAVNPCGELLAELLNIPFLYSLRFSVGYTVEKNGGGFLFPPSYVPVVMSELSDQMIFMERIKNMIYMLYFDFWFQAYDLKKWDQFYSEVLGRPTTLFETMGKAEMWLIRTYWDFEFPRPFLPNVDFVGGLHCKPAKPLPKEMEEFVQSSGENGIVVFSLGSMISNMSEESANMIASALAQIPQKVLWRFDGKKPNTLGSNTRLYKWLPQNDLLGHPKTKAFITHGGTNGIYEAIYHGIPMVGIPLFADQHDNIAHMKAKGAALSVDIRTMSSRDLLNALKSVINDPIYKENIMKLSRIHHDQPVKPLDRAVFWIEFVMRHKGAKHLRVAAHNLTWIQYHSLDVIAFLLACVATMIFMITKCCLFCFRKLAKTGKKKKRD

UGT2B17 [5] = molecular target: T1, UGT2B17; assay: Substrate activity at UGT2B17 in human intestinal microsomes assessed as enzyme-mediated glucuronidation by measuring Km at 2 to 1000 uM preincubated for 5 mins followed by UDPGA addition and measured after 60 mins by LC-MS/MS analysis; assay type: ADME, Intestine
Cytochrome P450 1A2 = Cytochrome P450 1A2 (Homo sapiens, UniProt P05177); assay: Inhibition of CYP1A2 in human liver microsomes up to 50 uM using phenacetin as substrate measured after 10 mins in presence of NADPH by LC-MS/MS analysis; assay type: ADME
Cytochrome P450 2B6 = Cytochrome P450 2B6 (Homo sapiens, UniProt P20813); assay: Inhibition of CYP2B6 in human liver microsomes up to 50 uM using bupropion as substrate measured after 10 mins in presence of NADPH by LC-MS/MS analysis; assay type: ADME
[6] = Half life in Beagle dog at 1 mg/kg, iv by UPLC-MS analysis; assay type: ADME, organism-based, Canis lupus familiaris; details: in vivo
[7] = Clearance in Beagle dog at 1 mg/kg, iv by UPLC-MS analysis; assay type: ADME, organism-based, Canis lupus familiaris; details: in vivo
[8] = Half life in patient with advanced solid tumor at 40 mg, po administered once daily measured on day 15; assay type: ADME, organism-based; details: human, in vivo
[9] = Cmax in patient with advanced solid tumor at 20 mg, po administered once daily measured on day 15; assay type: ADME, organism-based; design: dose 20 mg, route oral; details: human, in vivo
[10] = Cmax in patient with advanced solid tumor at 40 mg, po administered once daily measured on day 15; assay type: ADME, organism-based; design: dose 40 mg, route oral; details: human, in vivo
[11] = AUClast in patient with advanced solid tumor at 120 mg, po administered once daily measured on day 15; assay type: ADME, organism-based; design: dose 120 mg, route oral, time 0 - last; details: human, in vivo
[12] = AUClast in patient with advanced solid tumor at 240 mg, po administered once daily measured on day 15; assay type: ADME, organism-based; design: dose 240 mg, time 0 - last, route oral; details: human, in vivo
[13] = Plasma concentration in patient with advanced solid tumor at 40 mg, po administered once daily measured on day 15 after 24 hrs; assay type: ADME, organism-based; details: human
[14] = Plasma concentration in patient with advanced solid tumor at 160 mg, po administered once daily measured on day 15 after 24 hrs; assay type: ADME, organism-based; details: human
[15] = molecular target: Alpha-1A adrenergic receptor (Homo sapiens) (UniProt P35348); assay: Activity at human alpha1A receptor at 10 uM
[16] = molecular target: Cyclin-dependent kinase 1/cyclin B1 (Homo sapiens) (UniProt P06493+P14635); assay: Activity at human CDK1/cyclinB at 10 uM; assay type: protein-complex assay
[17] = molecular target: Calcium/calmodulin-dependent protein kinase type II subunit delta (Homo sapiens) (UniProt Q13557); assay: Activity at human CAMK2D at 10 uM
[18] = molecular target: Potassium voltage-gated channel subfamily A member 5 (Homo sapiens) (UniProt P22460); assay: Activity at human Kv1.5 at 10 uM
[19] = molecular target: Substance-P receptor (Homo sapiens) (UniProt P25103); assay: Activity at human NK1 receptor at 10 uM
[20] = molecular target: 5-hydroxytryptamine receptor 1A (Homo sapiens) (UniProt P08908); assay: Activity at human 5-HT1A receptor at 10 uM
[21] = molecular target: Parathyroid hormone/parathyroid hormone-related peptide receptor (Homo sapiens) (UniProt Q03431); assay: Activity at human PTH1 receptor at 10 uM
[22] = molecular target: Prostaglandin E2 receptor EP3 subtype (Homo sapiens) (UniProt P43115); assay: Activity at human Prostanoid EP3 receptor at 10 uM
[23] = molecular target: Delta-type opioid receptor (Homo sapiens) (UniProt P41143); assay: Activity at human delta opioid receptor at 10 uM
[24] = molecular target: Corticotropin-releasing factor receptor 1 (Homo sapiens) (UniProt P34998); assay: Activity at human CRF1 receptor at 10 uM
[25] = molecular target: B2 bradykinin receptor (Homo sapiens) (UniProt P30411); assay: Activity at human bradykinin B2 receptor at 10 uM
Homo sapiens = species on record: Homo sapiens; assay: Activity at human BB2 receptor at 10 uM
[26] = molecular target: C5a anaphylatoxin chemotactic receptor 1 (Homo sapiens) (UniProt P21730); assay: Activity at human C5a receptor at 10 uM
[27] = molecular target: Cyclin-dependent kinase 5/CDK5 activator 1 (Homo sapiens) (UniProt Q00535+Q15078); assay: Activity at human CDK5/p25 at 10 uM; assay type: protein-complex assay
[28] = molecular target: Insulin receptor (Homo sapiens) (UniProt P06213); assay: Activity at human IR at 10 uM
[29] = molecular target: Protein kinase C beta type (Homo sapiens) (UniProt P05771); assay: Activity at human PKCbeta2 at 10 uM
[30] = molecular target: Protein kinase C gamma type (Homo sapiens) (UniProt P05129); assay: Activity at human PKCgamma at 10 uM
[31] = molecular target: Protein kinase C epsilon type (Homo sapiens) (UniProt Q02156); assay: Activity at human PKCepsilon at 10 uM
[32] = molecular target: Mitogen-activated protein kinase 14 (Homo sapiens) (UniProt Q16539); assay: Activity at human SAPK2a at 10 uM
[33] = molecular target: Calcitonin gene-related peptide type 1 receptor (Homo sapiens) (UniProt Q16602); assay: Activity at human CGRP1 at 10 uM
[34] = molecular target: Beta-2 adrenergic receptor (Homo sapiens) (UniProt P07550); assay: Activity at human beta2 receptor at 10 uM

Sequence of Delta-type opioid receptor (Homo sapiens) (P41143 whole entry): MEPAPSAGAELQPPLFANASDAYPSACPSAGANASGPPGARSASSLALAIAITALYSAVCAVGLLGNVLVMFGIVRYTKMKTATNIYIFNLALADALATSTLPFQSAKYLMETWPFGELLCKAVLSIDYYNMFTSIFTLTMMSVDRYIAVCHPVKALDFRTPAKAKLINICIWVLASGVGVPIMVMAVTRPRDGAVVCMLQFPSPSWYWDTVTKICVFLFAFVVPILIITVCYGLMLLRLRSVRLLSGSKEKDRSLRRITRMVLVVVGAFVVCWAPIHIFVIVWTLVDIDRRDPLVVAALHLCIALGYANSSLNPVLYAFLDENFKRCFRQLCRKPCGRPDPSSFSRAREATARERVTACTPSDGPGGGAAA
Sequence of Parathyroid hormone/parathyroid hormone-related peptide receptor (Homo sapiens) (Q03431 whole entry): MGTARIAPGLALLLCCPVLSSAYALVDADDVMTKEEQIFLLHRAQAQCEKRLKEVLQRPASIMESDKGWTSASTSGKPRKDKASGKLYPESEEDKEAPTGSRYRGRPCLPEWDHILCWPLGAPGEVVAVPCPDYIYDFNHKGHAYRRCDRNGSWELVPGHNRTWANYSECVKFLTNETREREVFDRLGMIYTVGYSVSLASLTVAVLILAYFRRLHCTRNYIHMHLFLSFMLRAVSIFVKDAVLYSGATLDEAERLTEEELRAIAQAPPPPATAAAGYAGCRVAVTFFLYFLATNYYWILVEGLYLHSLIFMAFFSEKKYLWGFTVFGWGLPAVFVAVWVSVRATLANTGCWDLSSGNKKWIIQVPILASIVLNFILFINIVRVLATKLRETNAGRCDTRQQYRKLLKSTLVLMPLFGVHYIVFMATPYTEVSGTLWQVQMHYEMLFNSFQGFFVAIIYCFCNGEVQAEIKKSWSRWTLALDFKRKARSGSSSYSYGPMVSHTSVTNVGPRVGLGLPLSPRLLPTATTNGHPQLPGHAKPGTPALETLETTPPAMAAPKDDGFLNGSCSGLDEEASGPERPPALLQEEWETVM
Sequence of B2 bradykinin receptor (Homo sapiens) (P30411 whole entry): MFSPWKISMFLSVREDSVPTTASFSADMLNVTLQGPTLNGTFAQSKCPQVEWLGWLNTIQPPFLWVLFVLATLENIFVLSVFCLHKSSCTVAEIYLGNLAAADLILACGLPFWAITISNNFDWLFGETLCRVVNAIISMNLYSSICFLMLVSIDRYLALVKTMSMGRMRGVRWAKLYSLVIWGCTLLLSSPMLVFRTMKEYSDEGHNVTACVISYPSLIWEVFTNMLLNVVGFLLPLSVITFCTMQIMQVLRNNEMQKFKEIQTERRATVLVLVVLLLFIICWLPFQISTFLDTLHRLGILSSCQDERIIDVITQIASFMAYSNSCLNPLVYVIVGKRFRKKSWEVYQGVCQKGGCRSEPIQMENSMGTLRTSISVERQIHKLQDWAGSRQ
Sequence of Cytochrome P450 2B6 (P20813 whole entry): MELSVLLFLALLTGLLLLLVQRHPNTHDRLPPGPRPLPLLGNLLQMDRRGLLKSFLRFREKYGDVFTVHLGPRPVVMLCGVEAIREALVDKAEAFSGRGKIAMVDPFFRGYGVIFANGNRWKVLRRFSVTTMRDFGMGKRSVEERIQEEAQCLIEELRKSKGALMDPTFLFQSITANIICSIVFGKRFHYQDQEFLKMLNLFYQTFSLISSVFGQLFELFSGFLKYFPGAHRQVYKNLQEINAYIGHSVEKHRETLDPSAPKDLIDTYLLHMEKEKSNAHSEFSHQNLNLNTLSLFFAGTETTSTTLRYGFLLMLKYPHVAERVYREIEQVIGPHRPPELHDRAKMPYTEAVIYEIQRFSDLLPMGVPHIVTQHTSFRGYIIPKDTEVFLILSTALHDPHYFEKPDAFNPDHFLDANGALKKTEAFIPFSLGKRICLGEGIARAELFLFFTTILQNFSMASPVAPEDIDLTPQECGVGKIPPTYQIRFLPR
Sequence of Potassium voltage-gated channel subfamily A member 5 (Homo sapiens) (P22460 whole entry): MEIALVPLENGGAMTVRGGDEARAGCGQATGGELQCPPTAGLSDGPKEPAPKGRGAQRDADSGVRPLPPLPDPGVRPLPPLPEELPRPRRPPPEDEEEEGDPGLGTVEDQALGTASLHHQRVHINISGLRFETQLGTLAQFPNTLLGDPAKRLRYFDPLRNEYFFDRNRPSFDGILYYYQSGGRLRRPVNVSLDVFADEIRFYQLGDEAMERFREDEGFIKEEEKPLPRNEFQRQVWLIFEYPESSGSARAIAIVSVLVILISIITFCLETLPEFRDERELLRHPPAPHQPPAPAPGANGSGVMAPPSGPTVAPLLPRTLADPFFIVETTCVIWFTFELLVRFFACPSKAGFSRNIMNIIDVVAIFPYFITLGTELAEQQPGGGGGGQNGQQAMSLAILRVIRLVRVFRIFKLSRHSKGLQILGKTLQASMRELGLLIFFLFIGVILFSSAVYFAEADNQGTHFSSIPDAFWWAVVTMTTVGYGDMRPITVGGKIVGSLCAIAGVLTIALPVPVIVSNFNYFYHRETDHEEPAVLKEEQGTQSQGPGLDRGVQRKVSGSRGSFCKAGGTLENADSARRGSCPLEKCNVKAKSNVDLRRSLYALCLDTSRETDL
Sequence of 5-hydroxytryptamine receptor 1A (Homo sapiens) (P08908 whole entry): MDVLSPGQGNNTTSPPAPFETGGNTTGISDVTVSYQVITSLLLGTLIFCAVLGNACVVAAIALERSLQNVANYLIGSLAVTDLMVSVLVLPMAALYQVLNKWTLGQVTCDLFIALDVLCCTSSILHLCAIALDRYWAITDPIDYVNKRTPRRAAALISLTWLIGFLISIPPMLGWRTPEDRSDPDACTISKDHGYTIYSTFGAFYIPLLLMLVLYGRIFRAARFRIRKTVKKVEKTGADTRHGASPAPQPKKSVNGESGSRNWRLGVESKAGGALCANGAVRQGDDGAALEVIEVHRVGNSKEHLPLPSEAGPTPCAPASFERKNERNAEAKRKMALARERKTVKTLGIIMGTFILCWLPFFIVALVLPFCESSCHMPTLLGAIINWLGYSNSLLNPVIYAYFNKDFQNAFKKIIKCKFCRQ
Sequence of Alpha-1A adrenergic receptor (Homo sapiens) (P35348 whole entry): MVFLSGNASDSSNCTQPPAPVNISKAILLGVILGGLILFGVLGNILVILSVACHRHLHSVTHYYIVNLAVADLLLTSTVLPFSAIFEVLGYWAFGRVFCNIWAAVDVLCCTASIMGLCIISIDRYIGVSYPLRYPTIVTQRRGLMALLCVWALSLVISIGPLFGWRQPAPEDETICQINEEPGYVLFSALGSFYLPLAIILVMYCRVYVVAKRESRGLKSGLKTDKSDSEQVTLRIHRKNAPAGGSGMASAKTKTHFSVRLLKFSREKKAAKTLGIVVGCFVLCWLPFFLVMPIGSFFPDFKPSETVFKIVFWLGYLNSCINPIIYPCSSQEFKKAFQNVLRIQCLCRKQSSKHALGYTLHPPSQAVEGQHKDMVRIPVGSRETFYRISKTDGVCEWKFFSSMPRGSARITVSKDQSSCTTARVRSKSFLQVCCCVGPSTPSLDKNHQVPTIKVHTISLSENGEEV
Sequence of Corticotropin-releasing factor receptor 1 (Homo sapiens) (P34998 whole entry): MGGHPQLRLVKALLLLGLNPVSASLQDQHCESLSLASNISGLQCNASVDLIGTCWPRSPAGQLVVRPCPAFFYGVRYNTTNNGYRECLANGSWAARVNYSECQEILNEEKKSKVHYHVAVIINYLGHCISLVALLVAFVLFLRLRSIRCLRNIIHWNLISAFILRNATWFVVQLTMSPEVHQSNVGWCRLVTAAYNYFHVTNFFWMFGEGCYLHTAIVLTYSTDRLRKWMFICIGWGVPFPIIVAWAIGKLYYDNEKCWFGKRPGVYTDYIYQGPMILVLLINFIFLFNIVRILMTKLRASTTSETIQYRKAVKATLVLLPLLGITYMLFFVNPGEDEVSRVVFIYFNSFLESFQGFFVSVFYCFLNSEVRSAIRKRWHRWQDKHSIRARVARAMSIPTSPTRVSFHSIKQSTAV
Sequence of Calcitonin gene-related peptide type 1 receptor (Homo sapiens) (Q16602 whole entry, looked up): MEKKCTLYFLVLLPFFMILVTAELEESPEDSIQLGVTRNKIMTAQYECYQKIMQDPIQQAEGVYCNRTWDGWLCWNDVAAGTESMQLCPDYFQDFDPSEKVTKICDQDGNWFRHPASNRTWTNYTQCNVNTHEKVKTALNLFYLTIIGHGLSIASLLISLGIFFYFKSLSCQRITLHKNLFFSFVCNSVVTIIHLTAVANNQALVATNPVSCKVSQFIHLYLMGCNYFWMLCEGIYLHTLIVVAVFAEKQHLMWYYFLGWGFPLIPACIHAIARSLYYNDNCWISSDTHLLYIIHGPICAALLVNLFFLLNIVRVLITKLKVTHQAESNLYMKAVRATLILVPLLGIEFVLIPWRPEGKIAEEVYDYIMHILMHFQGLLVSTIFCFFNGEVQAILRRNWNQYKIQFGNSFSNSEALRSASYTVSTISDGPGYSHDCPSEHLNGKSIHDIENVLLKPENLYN
Sequence of C5a anaphylatoxin chemotactic receptor 1 (Homo sapiens) (P21730 whole entry): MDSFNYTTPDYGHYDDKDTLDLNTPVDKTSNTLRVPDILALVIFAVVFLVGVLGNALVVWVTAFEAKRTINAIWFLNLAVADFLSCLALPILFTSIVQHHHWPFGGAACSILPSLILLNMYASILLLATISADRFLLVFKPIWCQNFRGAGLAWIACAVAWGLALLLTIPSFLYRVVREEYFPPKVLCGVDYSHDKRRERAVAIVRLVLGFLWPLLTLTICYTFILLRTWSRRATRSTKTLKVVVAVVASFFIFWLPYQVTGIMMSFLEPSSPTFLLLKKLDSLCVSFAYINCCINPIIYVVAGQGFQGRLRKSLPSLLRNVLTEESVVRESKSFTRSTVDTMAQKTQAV
Sequence of Mitogen-activated protein kinase 14 (Homo sapiens) (Q16539 whole entry): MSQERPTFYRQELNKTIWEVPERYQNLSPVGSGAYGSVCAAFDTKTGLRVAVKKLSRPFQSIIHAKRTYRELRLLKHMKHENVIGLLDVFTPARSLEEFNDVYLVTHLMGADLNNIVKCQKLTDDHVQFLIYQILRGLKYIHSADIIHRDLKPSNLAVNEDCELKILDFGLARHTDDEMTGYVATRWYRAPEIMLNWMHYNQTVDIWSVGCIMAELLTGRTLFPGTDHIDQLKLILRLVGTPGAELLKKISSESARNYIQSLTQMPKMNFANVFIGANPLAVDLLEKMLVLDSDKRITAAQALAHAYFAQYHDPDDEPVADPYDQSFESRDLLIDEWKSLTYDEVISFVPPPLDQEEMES

- Activity [1]: inactive
- fraction unbound at 4 h, 10 µM [3]: 0.48
- Km at 1 h, 50 µM (UGT2B17 [4]): 10 µM
- Km at 1 h, up to 1000 µM (UGT2B17 [5]): 15 µM
- inhibition (INH) (Cytochrome P450 1A2): Not Active
- inhibition (INH) (Cytochrome P450 2B6): Not Active
- half-life [6]: 14 h
- clearance [7]: 1.3 mL/min/kg
- half-life [8]: 18.8 h
- Cmax [9]: 200 ng/mL
- Cmax [10]: 500 ng/mL
- AUC(0-t) [11]: 25900 ng·h/mL
- AUC(0-t) [12]: 28000 ng·h/mL
- concentration at 24 h [13]: 190 ng/mL
- concentration at 24 h [14]: 490 ng/mL
- Activity [15]: inactive
- Activity [16]: inactive
- Activity [17]: inactive
- Activity [18]: inactive
- Activity [19]: inactive
- Activity [20]: inactive
- Activity [21]: inactive
- Activity [22]: inactive
- Activity [23]: inactive
- Activity [24]: inactive
- Activity [25]: inactive
- Activity (Homo sapiens): inactive
- Activity [27]: inactive
- Activity [28]: inactive
- Activity [29]: inactive
- Activity [30]: inactive
- Activity [31]: inactive
- Activity [32]: inactive
- Activity [33]: inactive
- Activity [34]: inactive
SMILES: CS(=O)(=O)c1ccc(Oc2cc(F)cc(C#N)c2)c2c1[C@H](O)[C@H](F)[C@@H]2F [BELZUTIFAN]
- Activity [2]: Non-Toxic
- Activity [26]: inactive
